# Literature values as cited in PubChem BioAssay AID1259410 (Chemical Carcinogenesis Research Information System (CCRIS), 2018).
# System: rodent tumor promotion studies, tumor incidence
# Assay: CCRIS tumor promotion studies
# Conditions: Species: RAT
# Description: The CCRIS database contains chemical records with carcinogenicity, mutagenicity, tumor promotion, and tumor inhibition test results. It was developed by the National Cancer Institute (NCI). Data are derived from studies cited in primary journals, current awareness tools, NCI reports, and other sources. Test results have been reviewed by experts in carcinogenesis and mutagenesis.
# CCRIS provides historical information from the years 1985 - 2011. It is no longer updated.
# This is an archive assay for CCRIS tumor promotion studies.
smiles,measurement,setting,value
CC(=O)Oc1ccccc1C(=O)O,outcome,"Carcinogen: N-(4-(5-NITRO-2-FURYL)-2-THIAZOLYL)FORMAMIDE, 24554-26-5, Doses [Carcinogen]: 0.2% IN DIET FOR 12 WK (TOTAL DOSE: 2.7 G), Doses [Promoter]: 0.5% IN DIET (TOTAL DOSE: 45.9 G) BEGINNING 2 D PRIOR TO SIMULTANEOUS ADMINISTRATION WITH CARCINOGEN FOR 12 WK THEN CONT, Route [Carcinogen]: ORAL, Route [Promoter]: ORAL, Strain/Sex: F344/MALE",urinary bladder: transitional cell carcinoma
same,outcome,"Carcinogen: N-(4-(5-NITRO-2-FURYL)-2-THIAZOLYL)FORMAMIDE, 24554-26-5, Doses [Carcinogen]: 0.2% IN DIET FOR 12 WK (TOTAL DOSE: 3 G), Doses [Promoter]: 0.5% IN DIET (TOTAL DOSE: 39.9 G) BEGINNING 7 D POST LAST CARCINOGEN DOSE AND CONTINUING FOR DURATION OF STUDY (STUDY DU, Route [Carcinogen]: ORAL, Route [Promoter]: ORAL, Strain/Sex: F344/MALE",urinary bladder: transitional cell carcinoma
N,outcome,"Carcinogen: N-METHYL-N'-NITRO-N-NITROSOGUANIDINE, 70-25-7, Doses [Carcinogen]: 83 MG/L IN DRINKING WATER FOR 24 WK, Doses [Promoter]: 0, 0.01% IN DRINKING WATER BEGINNING POST LAST CARCINOGEN DOSE AND CONTINUING FOR 24 WK (STUDY DURATION: 48 WK), Route [Carcinogen]: ORAL, Route [Promoter]: ORAL, Strain/Sex: SPRAGUE-DAWLEY/MALE",stomach: tumor
same,outcome,"Carcinogen: N-METHYL-N'-NITRO-N-NITROSOGUANIDINE, 70-25-7, Doses [Carcinogen]: 83 MG/L IN DRINKING WATER FOR 24 WK, Doses [Promoter]: 0, 0.01% IN DRINKING WATER FOR 24 WK BEGINNING POST CARCINOGEN TREATMENT (STUDY DURATION: 48 WK), Route [Carcinogen]: ORAL, Route [Promoter]: ORAL, Strain/Sex: SPRAGUE-DAWLEY/MALE",stomach: adenocarcinoma
NC[C@@H]1O[C@H](O[C@H]2[C@@H](O)[C@H](O[C@@H]3[C@@H](O)[C@H](N)C[C@H](N)[C@H]3O[C@H]3O[C@H](CN)[C@@H](O)[C@H](O)[C@H]3N)O[C@@H]2CO)[C@H](N)[C@@H](O)[C@@H]1O,outcome,"Carcinogen: AZOXYMETHANE, 25843-45-2, Doses [Carcinogen]: 8 MG/KG 1/WK FOR 8 WK, Doses [Promoter]: 0, 100, 200 PPM IN DRINKING WATER BEGINNING 2 WK PRIOR TO CARCINOGEN TREATMENT AND CONTINUING FOR DURATION OF STUDY (STU, Doses [Promoter]: 0, 100, 200 PPM IN DRINKING WATER BEGINNING 2 WK PRIOR TO CARCINOGEN TREATMENT AND CONTINUING FOR DURATION OF STUDY (STU, Route [Carcinogen]: SUBCUTANEOUS, Route [Promoter]: ORAL, Strain/Sex: F344/FEMALE",colon: adenocarcinoma
COC(=O)[C@@H](N)Cc1ccc(O)cc1,outcome,"Carcinogen: N-METHYL-N'-NITRO-N-NITROSOGUANIDINE, 70-25-7, Doses [Carcinogen]: 25 UG/ML IN DRINKING WATER FOR 25 WK, Doses [Promoter]: 0, 512 MG/KG BW IN 0.9% SALINE 1/2 D FOR 26 WK BEGINNING 1 WK POST CARCINOGEN TREATMENT (STUDY DURATION: 52 WK), Route [Carcinogen]: ORAL, Route [Promoter]: SUBCUTANEOUS, Strain/Sex: WISTAR/MALE",stomach: adenocarcinoma
same,outcome,"Carcinogen: N-METHYL-N'-NITRO-N-NITROSOGUANIDINE, 70-25-7, Doses [Carcinogen]: 50 UG/ML IN DRINKING WATER FOR 20 WK, Doses [Promoter]: 0, 2 ML/KG IN A VOLUME OF 2 ML/KG 0.9% NACL AT DOSE LEVEL OF 512 MG/KG/BW 1/2 D FOR 32 WK (STUDY DURATION: 32 WK), Route [Carcinogen]: ORAL, Route [Promoter]: SUBCUTANEOUS, Strain/Sex: WISTAR/MALE",stomach: adenocarcinoma
C=CCC1(CC=C)C(=O)NC(=O)NC1=O,outcome,"Carcinogen: N-NITROSODIETHYLAMINE, 55-18-5, Doses [Carcinogen]: 75 MG/KG BW IN 0.85% SALINE ONCE, Doses [Promoter]: 0, 440 PPM IN DIET FOR DURATION OF STUDY BEGINNING 2 WK POST CARCINOGEN DOSE (STUDY DURATION: 78 WK), Route [Carcinogen]: INTRAPERITONEAL, Route [Promoter]: ORAL, Strain/Sex: F344/MALE","liver: adenoma, carcinoma"
